# From patent US11673855B2, “Voltage gated sodium channel imaging agents” (The General Hospital Corporation, priority 2017, dated 2023)
# “Also recorded” adds a separate entry of the source.
# How the values were obtained:
# SCN5A [1] = target: T1, SCN5A (Homo sapiens, UniProt Q14524); assay: Ex vivo autoradiography of human heart tissue, self-displacement dose-response; type: binding; conditions: self-inhibition, modified Cheng-Prusoff equation
# T1 construct: Non-failing human donor heart samples were compared to explanted tissue from patients who had suffered from heart failure; from tissue; host or cells: human left ventricular myocardium (non-failing donor hearts and explanted DCM-failing hearts)
# Source text: Non-failing human donor heart samples were compared to explanted tissue from patients who had suffered from heart failure due to idiopathic dilated cardiomyopathy (DCM) and required cardiac transplantation, as shown in FIGS. 4A-4B (see e.g., Japp et al, J. Am. Coll. Cardiol. 2016, 67:2996-3010).
# To exclude that the reduced signal was the result of a decrease in affinity in diseased vs. healthy tissue and confirm a deficit in channel density, dose-response experiments were performing using N-(2,6-dimethylphenyl)-2-(ethyl(2-fluoroethyl)amino)acetamide as the competition ligand. Using the modified Cheng-Prusoff equation for self-inhibition, these measurements allowed for the determination of Kd-values for the groups NF1 and F1, as shown in FIG. 4B. […] A ˜30% reduction in Bmax was observed.
# SCN5A [2] = target: T2, SCN5A (Rattus norvegicus, UniProt P15389); assay: Ex vivo F-18 autoradiography of rat myocardium; type: binding
# T2 construct: Heart sections ([…] thickness) were prepared using a −20° C. cryostat and thaw-mounted onto gelatin-coated slides; from tissue; host or cells: rat heart (myocardium) cryosections
# Description: Heart sections ([…] thickness) were prepared using a −20° C. cryostat and thaw-mounted onto gelatin-coated slides. The slides were stored at −20° C. until the day of the experiment. […] Individual images of sections were cropped using ImageJ with no additional adjustment to color levels/thresholds. The experimental setup was designed such that both baseline and competition experiments contained the same amount of radioactivity and were imaged on the same screen. […] For variation of washing times, the incubation was held constant at 15 min.
# rat myocardium = assay: Rodent PET-CT imaging of the myocardium, single bolus and bolus+infusion, with lidocaine block; type: in vivo
# Description: Male Sprague-Dawley rats (400-500 g) were anesthetized with inhalational isoflurane (Forane) (3% in a carrier of 1.5-2 L/min medical oxygen for induction and 2% isoflurane for maintenance of anesthesia during the scan). Lateral tail vein catheters were placed for intravenous (i.v.) injection of the compounds. Two rats were arranged head-to-head in a Triumph Trimodality PET/CT/SPECT scanner (Gamma Medica, Northridge, Calif.) or a MicroPET P4 scanner. […] Dynamic PET acquisition was performed over 45 min and was followed by computed tomography (CT) for anatomic coregistration and attenuation correction. […] Reconstructed images were exported from the scanner in DICOM format along with an anatomic CT for rodent studies. These files were imported to AMIDE and Gaussian filtered (kernel size=15, fwhm=1.5 mm). Regions of interest (ROIs) were drawn manually at the lung and myocardium guided by high-resolution CT structural images and summed PET data. Time-activity-curves (TACs) were exported in terms of decay corrected activity per unit volume at specified time points with gradually increasing intervals.
# [3] = test system: myocardium of non-human primates; assay: PET/MR imaging of non-human primates; type: in vivo
# Description: Two female baboons (Papio anubis, weight=15.2±1.6 kg) were deprived of food for 12 h prior to the study. Anesthesia was induced with intramuscular ketamine (10 mg/kg) and xylazine (0.5 mg/kg). After endotracheal intubation, the baboons were catheterized antecubitally for injection of the radiolabeled compound. Anesthesia was maintained using isoflurane (1-1.5%, 100% oxygen, 1 L/min) during the scan, and ketamine/xylazine effects were reversed with yobine (0.11 mg/kg, i.m.) before image acquisition. Vital signs, including heart rate, respiration rate, blood pressure, O2 saturation, and end tidal CO2, were monitored continuously and recorded every 15 min. Simultaneous PET/MR data were acquired using a Siemens Biograph mMR system (Siemens Healthcare, Erlangen, Germany). Each animal underwent a baseline and a blocking scan on two separate days. MR body imaging was performed with real-time respiratory bellow gating and using the body matrix coil and the built-in spine coil as the receiving coil elements. High-resolution anatomical T1-weighted, dual echo, gradient echo sequence was acquired with the following parameters: TR=194 ms, TE1/TE2=1.23/2.46 ms, matrix size 256×256, FOV=35 cm, phase FOV 65.6% (in-plane resolution=1.4 mm), 4 mm slice thickness, and 80 slices. For the purpose of MR-based attenuation correction of the PET data, a T1-weighted, 2-point Dixon 3D volumetric interpolated breath-hold examination (VIBE) scan was obtained. PET data were obtained using a single-bed position with an axial field of view of 25.8 cm, and a transverse field of view of 59.4 cm. PET data were acquired dynamically for 60 min (bolus injection of N-(2,6-dimethylphenyl)-2-(ethyl(2-(fluoro-^18F)ethyl)amino)acetamide) or 90 min (bolus/infusion of N-(2,6-dimethylphenyl)-2-(ethyl(2-(fluoro-^18F)ethyl)amino)acetamide) after intravenous administration of N-(2,6-dimethylphenyl)-2-(ethyl(2-(fluoro-^18F)ethyl)amino)acetamide (5.0±0.2 mCi bolus or 4 mCi bolus+4 mCi infusion). […] Standard uptake unit (SUV) was calculated as the mean radioactivity per injected dose per weight.
# T2 sequence (P15389 whole entry): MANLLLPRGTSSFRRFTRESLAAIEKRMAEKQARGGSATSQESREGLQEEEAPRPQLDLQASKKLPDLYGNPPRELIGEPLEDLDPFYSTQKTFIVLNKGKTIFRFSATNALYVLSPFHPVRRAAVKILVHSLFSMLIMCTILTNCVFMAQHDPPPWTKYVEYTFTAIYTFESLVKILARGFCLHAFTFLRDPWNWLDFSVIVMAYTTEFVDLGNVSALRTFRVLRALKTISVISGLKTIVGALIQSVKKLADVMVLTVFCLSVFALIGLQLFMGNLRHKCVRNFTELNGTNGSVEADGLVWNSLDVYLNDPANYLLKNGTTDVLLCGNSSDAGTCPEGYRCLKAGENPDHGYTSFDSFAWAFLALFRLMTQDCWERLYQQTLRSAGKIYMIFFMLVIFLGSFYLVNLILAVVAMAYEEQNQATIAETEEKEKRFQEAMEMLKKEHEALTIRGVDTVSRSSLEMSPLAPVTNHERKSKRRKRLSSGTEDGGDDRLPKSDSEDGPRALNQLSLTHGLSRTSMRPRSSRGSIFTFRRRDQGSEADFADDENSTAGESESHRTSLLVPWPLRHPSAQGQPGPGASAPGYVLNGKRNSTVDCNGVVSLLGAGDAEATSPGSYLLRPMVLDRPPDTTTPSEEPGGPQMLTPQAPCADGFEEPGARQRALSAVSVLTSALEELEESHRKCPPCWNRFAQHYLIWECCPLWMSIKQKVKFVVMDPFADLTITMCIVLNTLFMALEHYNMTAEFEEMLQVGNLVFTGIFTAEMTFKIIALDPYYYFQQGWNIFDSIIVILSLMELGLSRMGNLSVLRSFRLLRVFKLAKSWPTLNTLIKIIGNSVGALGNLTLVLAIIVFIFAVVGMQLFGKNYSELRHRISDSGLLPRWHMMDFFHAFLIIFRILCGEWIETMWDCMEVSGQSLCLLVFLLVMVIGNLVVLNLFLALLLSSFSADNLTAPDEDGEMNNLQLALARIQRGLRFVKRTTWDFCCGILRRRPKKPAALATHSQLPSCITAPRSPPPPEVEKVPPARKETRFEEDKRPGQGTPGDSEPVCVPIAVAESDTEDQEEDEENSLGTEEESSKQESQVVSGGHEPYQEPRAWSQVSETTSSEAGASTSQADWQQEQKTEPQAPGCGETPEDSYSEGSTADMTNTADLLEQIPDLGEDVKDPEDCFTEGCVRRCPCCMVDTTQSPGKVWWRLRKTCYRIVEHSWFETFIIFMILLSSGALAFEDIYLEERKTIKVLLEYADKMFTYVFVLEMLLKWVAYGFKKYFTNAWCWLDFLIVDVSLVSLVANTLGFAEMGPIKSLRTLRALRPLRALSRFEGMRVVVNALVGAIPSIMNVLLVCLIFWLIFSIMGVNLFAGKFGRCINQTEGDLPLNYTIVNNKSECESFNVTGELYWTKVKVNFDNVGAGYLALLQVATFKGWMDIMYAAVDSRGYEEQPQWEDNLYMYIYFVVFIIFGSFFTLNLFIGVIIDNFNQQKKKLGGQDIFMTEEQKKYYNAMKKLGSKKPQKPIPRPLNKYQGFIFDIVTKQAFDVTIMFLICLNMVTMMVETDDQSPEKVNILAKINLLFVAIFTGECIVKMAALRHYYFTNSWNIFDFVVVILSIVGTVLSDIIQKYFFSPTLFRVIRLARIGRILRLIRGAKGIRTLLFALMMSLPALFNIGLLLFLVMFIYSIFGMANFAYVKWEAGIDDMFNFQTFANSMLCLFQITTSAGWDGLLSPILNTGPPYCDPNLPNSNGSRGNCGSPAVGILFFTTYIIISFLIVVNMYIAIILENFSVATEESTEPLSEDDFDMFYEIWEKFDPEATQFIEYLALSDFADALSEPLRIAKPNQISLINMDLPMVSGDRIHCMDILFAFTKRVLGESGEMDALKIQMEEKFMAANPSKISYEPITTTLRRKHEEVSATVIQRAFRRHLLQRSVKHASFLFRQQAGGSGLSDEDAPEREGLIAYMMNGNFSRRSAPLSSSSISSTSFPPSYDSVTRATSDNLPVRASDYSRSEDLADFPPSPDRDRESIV
# T1 sequence (Q14524 whole entry): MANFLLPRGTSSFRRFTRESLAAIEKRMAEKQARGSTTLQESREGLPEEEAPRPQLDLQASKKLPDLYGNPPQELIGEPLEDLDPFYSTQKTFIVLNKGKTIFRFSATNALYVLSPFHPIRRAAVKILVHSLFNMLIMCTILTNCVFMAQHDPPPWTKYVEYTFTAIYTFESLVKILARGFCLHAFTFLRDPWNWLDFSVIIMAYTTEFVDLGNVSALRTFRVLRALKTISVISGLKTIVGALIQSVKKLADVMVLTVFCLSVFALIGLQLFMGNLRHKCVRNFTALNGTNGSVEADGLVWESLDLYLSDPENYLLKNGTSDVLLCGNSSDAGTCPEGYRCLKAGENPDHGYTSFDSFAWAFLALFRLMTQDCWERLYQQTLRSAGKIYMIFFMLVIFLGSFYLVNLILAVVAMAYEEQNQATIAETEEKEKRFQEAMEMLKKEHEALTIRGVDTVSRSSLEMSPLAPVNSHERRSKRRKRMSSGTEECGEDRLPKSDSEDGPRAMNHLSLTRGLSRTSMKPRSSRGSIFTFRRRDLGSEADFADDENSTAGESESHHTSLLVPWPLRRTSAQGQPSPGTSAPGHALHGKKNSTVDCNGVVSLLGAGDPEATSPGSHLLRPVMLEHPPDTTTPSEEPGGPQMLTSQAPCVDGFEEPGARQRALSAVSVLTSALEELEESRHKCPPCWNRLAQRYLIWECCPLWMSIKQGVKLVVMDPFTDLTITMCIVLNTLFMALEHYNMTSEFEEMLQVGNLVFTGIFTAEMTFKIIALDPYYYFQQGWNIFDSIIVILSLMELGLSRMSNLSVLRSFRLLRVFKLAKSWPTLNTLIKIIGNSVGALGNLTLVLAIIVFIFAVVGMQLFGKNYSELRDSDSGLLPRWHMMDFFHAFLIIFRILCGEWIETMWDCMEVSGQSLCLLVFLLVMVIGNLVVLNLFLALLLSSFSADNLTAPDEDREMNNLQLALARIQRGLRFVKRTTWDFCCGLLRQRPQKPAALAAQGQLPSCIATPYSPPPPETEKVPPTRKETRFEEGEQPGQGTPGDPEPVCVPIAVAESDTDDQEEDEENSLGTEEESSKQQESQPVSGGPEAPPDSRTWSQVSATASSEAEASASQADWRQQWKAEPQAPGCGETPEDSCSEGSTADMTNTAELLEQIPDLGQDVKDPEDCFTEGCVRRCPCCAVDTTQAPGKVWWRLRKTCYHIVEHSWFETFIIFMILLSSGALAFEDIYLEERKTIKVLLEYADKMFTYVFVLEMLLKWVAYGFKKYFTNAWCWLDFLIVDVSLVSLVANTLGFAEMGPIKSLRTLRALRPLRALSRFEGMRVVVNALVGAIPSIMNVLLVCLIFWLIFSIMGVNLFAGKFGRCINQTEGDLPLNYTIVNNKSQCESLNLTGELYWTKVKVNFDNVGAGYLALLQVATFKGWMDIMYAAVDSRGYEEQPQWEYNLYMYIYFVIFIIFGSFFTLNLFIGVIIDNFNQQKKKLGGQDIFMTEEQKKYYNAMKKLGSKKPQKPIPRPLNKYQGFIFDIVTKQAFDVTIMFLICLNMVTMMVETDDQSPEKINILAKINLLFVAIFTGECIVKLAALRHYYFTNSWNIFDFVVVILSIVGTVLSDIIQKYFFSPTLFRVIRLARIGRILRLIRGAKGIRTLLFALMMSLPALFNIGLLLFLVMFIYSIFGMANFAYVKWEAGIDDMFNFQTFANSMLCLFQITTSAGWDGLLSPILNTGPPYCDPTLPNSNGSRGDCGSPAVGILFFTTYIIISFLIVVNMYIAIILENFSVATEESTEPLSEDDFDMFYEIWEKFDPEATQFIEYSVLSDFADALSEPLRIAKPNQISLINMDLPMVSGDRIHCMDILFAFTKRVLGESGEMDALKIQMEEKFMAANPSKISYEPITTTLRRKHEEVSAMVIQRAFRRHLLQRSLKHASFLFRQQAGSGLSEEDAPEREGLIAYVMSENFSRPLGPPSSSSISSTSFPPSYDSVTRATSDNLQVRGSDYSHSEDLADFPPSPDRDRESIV
compound,measurement,setting,value
"CCN(CCF)CC(=O)Nc1c(C)cccc1C [Example 1, N-(2,6-dimethylphenyl)-2-(ethyl(2-fluoroethyl)amino)acetamide]","Kd-values, non-failing (NF1) vs failing (F1) left ventricular tissue",SCN5A [1],no difference in Kd-values between the groups
same,level of non-specific / non-displaceable binding (BNS) as competition ligand,SCN5A [2]; competition ligands at the same concentration against the 18F tracer,same level of BNS as lidocaine; also recorded: same level of non-displaceable binding
"CCN(CC[18F])CC(=O)Nc1c(C)cccc1C [Example 2, N-(2,6-dimethylphenyl)-2-(ethyl(2-(fluoro-^18F)ethyl)amino)acetamide]",residence time (t1/2^−1) of the radiotracer,"rat myocardium; from time course of signal reduction after lidocaine, estimation",~1 min⁻¹
same,time to stable baseline signal,rat myocardium; i.v. bolus ~150 μCi followed by constant infusion ~300 μCi over 60 min,20 min
same,time for tracer bolus to reach peak signal,rat myocardium; single bolus,3 min
same,time after bolus injection at which blood pool had cleared and myocardial signal was revealed,rat myocardium; single i.v. bolus,3 min
same,myocardial baseline signal,"rat myocardium; single i.v. bolus, healthy rats",up to 2 % ID/cc
same,estimated residence time,"[3]; bolus 4 mCi + infusion 4 mCi over 90 min, lidocaine challenge",5 min⁻¹
same,time after which blood background cleared,"[3]; single bolus, healthy baboon",2 to 3 min
same,reduction of total binding on wash-out,"SCN5A [2]; after 1 min wash, incubation 15 min",50%
same,incubation time after which specific binding (BS) reached a constant level,"SCN5A [2]; incubation times 1, 5, 10, 20 min, wash 1 min",5 min
same,specific binding (BS) as share of overall binding,"SCN5A [2]; rat myocardial slices 20 μm, self-competition with excess (500 μM) unlabeled compound",~70%
"CCN(CC)CC(=O)Nc1c(C)cccc1C [lidocaine, reference compound]",time to plateau of full block after the pharmacological dose,rat myocardium; 5 mg/kg lidocaine,3 minutes
same,reduction of tracer signal by in-scan lidocaine challenge,"rat myocardium; 5 mg/kg lidocaine i.v., bolus+infusion paradigm",complete reduction of the radiolabeled compound signal to background level
same,lidocaine dose from which reduction of myocardial tracer signal was observed,"rat myocardium; i.v. 5 min before tracer, compared to vehicle",0.1 mg/kg
same,in vivo IC50 at the myocardium,"rat myocardium; in-scan lidocaine challenges 0.5-5 mg/kg i.v., bolus+infusion, estimation",~0.7 mg/kg
same,effect of lidocaine pre-block on myocardial tracer signal,[3]; 5 mg/kg i.v. lidocaine 5 min prior to tracer,blocked the myocardial signal; also recorded: suppressed the myocardial signal to background levels
